Assays:
Type in all cases: functional
Details in all cases: read-out: Activity
HL-60(TB) = experiment: Growth inhibition of human HL-60(TB) cells assessed as cell growth at 10 uM incubated for 48 hrs by sulforhodamine B assay relative to control
RPMI-8226 = experiment: Growth inhibition of human RPMI-8226 cells assessed as cell growth at 10 uM incubated for 48 hrs by sulforhodamine B assay relative to control
HOP-62 = experiment: Growth inhibition of human HOP-62 cells assessed as cell growth at 10 uM incubated for 48 hrs by sulforhodamine B assay relative to control
NCI-H226 = experiment: Growth inhibition of human NCI-H226 cells assessed as cell growth at 10 uM incubated for 48 hrs by sulforhodamine B assay relative to control
NCI-H322M = experiment: Growth inhibition of human NCI-H322M cells assessed as cell growth at 10 uM incubated for 48 hrs by sulforhodamine B assay relative to control
NCI-H522 = experiment: Growth inhibition of human NCI-H522 cells assessed as cell growth at 10 uM incubated for 48 hrs by sulforhodamine B assay relative to control
HCC 2998 = experiment: Growth inhibition of human HCC 2998 cells assessed as cell growth at 10 uM incubated for 48 hrs by sulforhodamine B assay relative to control
HCT-116 = experiment: Growth inhibition of human HCT-116 cells assessed as cell growth at 10 uM incubated for 48 hrs by sulforhodamine B assay relative to control
HCT-15 = experiment: Growth inhibition of human HCT-15 cells assessed as cell growth at 10 uM incubated for 48 hrs by sulforhodamine B assay relative to control
HT-29 = experiment: Growth inhibition of human HT-29 cells assessed as cell growth at 10 uM incubated for 48 hrs by sulforhodamine B assay relative to control
KM12 = experiment: Growth inhibition of human KM12 cells assessed as cell growth at 10 uM incubated for 48 hrs by sulforhodamine B assay relative to control
SF-268 = experiment: Growth inhibition of human SF-268 cells assessed as cell growth at 10 uM incubated for 48 hrs by sulforhodamine B assay relative to control
SF-539 = experiment: Growth inhibition of human SF-539 cells assessed as cell growth at 10 uM incubated for 48 hrs by sulforhodamine B assay relative to control
SNB-19 = experiment: Growth inhibition of human SNB-19 cells assessed as cell growth at 10 uM incubated for 48 hrs by sulforhodamine B assay relative to control
SNB-75 = experiment: Growth inhibition of human SNB-75 cells assessed as cell growth at 10 uM incubated for 48 hrs by sulforhodamine B assay relative to control
U-251 = experiment: Growth inhibition of human U-251 cells assessed as cell growth at 10 uM incubated for 48 hrs by sulforhodamine B assay relative to control
LOX IMVI = experiment: Growth inhibition of human LOX IMVI cells assessed as cell growth at 10 uM incubated for 48 hrs by sulforhodamine B assay relative to control
Malme-3M = experiment: Growth inhibition of human Malme-3M cells assessed as cell growth at 10 uM incubated for 48 hrs by sulforhodamine B assay relative to control
M14 = experiment: Growth inhibition of human M14 cells assessed as cell growth at 10 uM incubated for 48 hrs by sulforhodamine B assay relative to control
MDA-MB-435 = experiment: Growth inhibition of human MDA-MB-435 cells assessed as cell growth at 10 uM incubated for 48 hrs by sulforhodamine B assay relative to control
SK-MEL-2 = experiment: Growth inhibition of human SK-MEL-2 cells assessed as cell growth at 10 uM incubated for 48 hrs by sulforhodamine B assay relative to control
SK-MEL-28 = experiment: Growth inhibition of human SK-MEL-28 cells assessed as cell growth at 10 uM incubated for 48 hrs by sulforhodamine B assay relative to control
SK-MEL-5 = experiment: Growth inhibition of human SK-MEL-5 cells assessed as cell growth at 10 uM incubated for 48 hrs by sulforhodamine B assay relative to control
UACC-257 = experiment: Growth inhibition of human UACC-257 cells assessed as cell growth at 10 uM incubated for 48 hrs by sulforhodamine B assay relative to control
UACC-62 = experiment: Growth inhibition of human UACC-62 cells assessed as cell growth at 10 uM incubated for 48 hrs by sulforhodamine B assay relative to control
IGROV-1 = experiment: Growth inhibition of human IGROV-1 cells assessed as cell growth at 10 uM incubated for 48 hrs by sulforhodamine B assay relative to control
OVCAR-3 = experiment: Growth inhibition of human OVCAR-3 cells assessed as cell growth at 10 uM incubated for 48 hrs by sulforhodamine B assay relative to control
OVCAR-5 = experiment: Growth inhibition of human OVCAR-5 cells assessed as cell growth at 10 uM incubated for 48 hrs by sulforhodamine B assay relative to control
OVCAR-8 = experiment: Growth inhibition of human OVCAR-8 cells assessed as cell growth at 10 uM incubated for 48 hrs by sulforhodamine B assay relative to control
786-0 = experiment: Growth inhibition of human 786-0 cells assessed as cell growth at 10 uM incubated for 48 hrs by sulforhodamine B assay relative to control
ACHN = experiment: Growth inhibition of human ACHN cells assessed as cell growth at 10 uM incubated for 48 hrs by sulforhodamine B assay relative to control
CAKI-1 = experiment: Growth inhibition of human CAKI-1 cells assessed as cell growth at 10 uM incubated for 48 hrs by sulforhodamine B assay relative to control
SN12C = experiment: Growth inhibition of human SN12C cells assessed as cell growth at 10 uM incubated for 48 hrs by sulforhodamine B assay relative to control
TK-10 = experiment: Growth inhibition of human TK-10 cells assessed as cell growth at 10 uM incubated for 48 hrs by sulforhodamine B assay relative to control
UO-31 = experiment: Growth inhibition of human UO-31 cells assessed as cell growth at 10 uM incubated for 48 hrs by sulforhodamine B assay relative to control
PC-3 = experiment: Growth inhibition of human PC-3 cells assessed as cell growth at 10 uM incubated for 48 hrs by sulforhodamine B assay relative to control
MCF7 = experiment: Growth inhibition of human MCF7 cells assessed as cell growth at 10 uM incubated for 48 hrs by sulforhodamine B assay relative to control
BT-549 = experiment: Growth inhibition of human BT-549 cells assessed as cell growth at 10 uM incubated for 48 hrs by sulforhodamine B assay relative to control
T47D = experiment: Growth inhibition of human T47D cells assessed as cell growth at 10 uM incubated for 48 hrs by sulforhodamine B assay relative to control
MDA-MB-468 = experiment: Growth inhibition of human MDA-MB-468 cells assessed as cell growth at 10 uM incubated for 48 hrs by sulforhodamine B assay relative to control

| SMILES | growth at 10 µM (HL-60(TB)) [%] | growth at 10 µM (HOP-62) [%] | growth at 10 µM (NCI-H226) [%] | growth at 10 µM (NCI-H322M) [%] | growth at 10 µM (NCI-H522) [%] | growth at 10 µM (HCC 2998) [%] | growth at 10 µM (HCT-116) [%] | growth at 10 µM (HCT-15) [%] | growth at 10 µM (HT-29) [%] | growth at 10 µM (KM12) [%] | growth at 10 µM (SF-268) [%] | growth at 10 µM (SF-539) [%] | growth at 10 µM (SNB-19) [%] | growth at 10 µM (SNB-75) [%] | growth at 10 µM (U-251) [%] | growth at 10 µM (LOX IMVI) [%] | growth at 10 µM (Malme-3M) [%] | growth at 10 µM (M14) [%] | growth at 10 µM (MDA-MB-435) [%] | growth at 10 µM (SK-MEL-2) [%] | other results |
| --- | --- | --- | --- | --- | --- | --- | --- | --- | --- | --- | --- | --- | --- | --- | --- | --- | --- | --- | --- | --- | --- |
| CC(=O)Nc1cccc(NC(=O)c2ccc(C(=O)Nc3cc(CO)cc(NC(C)=O)c3)cc2)c1 | 96.9 | 106 | 97.1 | 115 | 89.1 | 102 | 105 | 104 | 109 | 111 | 103 | 106 | 112 | 94.9 | 111 | 103 | 107 | 101 | 105 | 88.1 | growth at 10 µM (RPMI-8226): 92%; growth at 10 µM (SK-MEL-28): 111%; growth at 10 µM (SK-MEL-5): 103%; growth at 10 µM (UACC-257): 101%; growth at 10 µM (UACC-62): 101%; growth at 10 µM (IGROV-1): 110%; growth at 10 µM (OVCAR-3): 126%; growth at 10 µM (OVCAR-5): 108%; growth at 10 µM (OVCAR-8): 106%; growth at 10 µM (786-0): 112%; growth at 10 µM (ACHN): 106%; growth at 10 µM (CAKI-1): 111%; growth at 10 µM (SN12C): 106%; growth at 10 µM (TK-10): 98.8%; growth at 10 µM (UO-31): 100%; growth at 10 µM (PC-3): 101%; growth at 10 µM (MCF7): 93.3%; growth at 10 µM (BT-549): 116%; growth at 10 µM (T47D): 86.2%; growth at 10 µM (MDA-MB-468): 110% |
| CC(=O)Nc1cc(CCl)cc(NC(=O)c2ccc(C(=O)NCCCN(C)C)cc2)c1 | 104 | 106 | 105 | 116 | 98.7 | 90 | 103 | 104 | 103 | 107 | 106 | 92.8 | 117 | 86 | 103 | 95.2 | 109 | 107 | 105 | 102 | growth at 10 µM (SK-MEL-28): 107%; growth at 10 µM (SK-MEL-5): 108%; growth at 10 µM (UACC-257): 102%; growth at 10 µM (UACC-62): 114%; growth at 10 µM (IGROV-1): 136%; growth at 10 µM (OVCAR-3): 106%; growth at 10 µM (OVCAR-5): 97.5%; growth at 10 µM (OVCAR-8): 111%; growth at 10 µM (786-0): 104%; growth at 10 µM (ACHN): 105%; growth at 10 µM (CAKI-1): 102%; growth at 10 µM (SN12C): 128%; growth at 10 µM (TK-10): 107%; growth at 10 µM (UO-31): 103%; growth at 10 µM (PC-3): 109%; growth at 10 µM (MCF7): 81.5%; growth at 10 µM (BT-549): 105%; growth at 10 µM (T47D): 97.6%; growth at 10 µM (MDA-MB-468): 92.9% |
| CCN(CC)CC(=O)Nc1cccc(C(=O)Nc2cc(CO)cc(NC(C)=O)c2)c1 | 105 | 96.9 | 95.7 | 117 | 93.8 | 95.8 | 99.6 | 103 | 103 | 110 | 113 | 98.7 | 105 | 91 | 103 | 98.7 | 102 | 103 | 110 | 99.8 | growth at 10 µM (SK-MEL-28): 112%; growth at 10 µM (SK-MEL-5): 102%; growth at 10 µM (UACC-257): 101%; growth at 10 µM (UACC-62): 106%; growth at 10 µM (IGROV-1): 130%; growth at 10 µM (OVCAR-3): 126%; growth at 10 µM (OVCAR-5): 105%; growth at 10 µM (OVCAR-8): 115%; growth at 10 µM (786-0): 98.7%; growth at 10 µM (ACHN): 105%; growth at 10 µM (CAKI-1): 112%; growth at 10 µM (SN12C): 112%; growth at 10 µM (TK-10): 96.6%; growth at 10 µM (UO-31): 96.6%; growth at 10 µM (PC-3): 102%; growth at 10 µM (MCF7): 88.9%; growth at 10 µM (BT-549): 105%; growth at 10 µM (T47D): 92.9%; growth at 10 µM (MDA-MB-468): 95.7% |

— ChEMBL document CHEMBL4715697, “Synthesis and biological activity of benzamide DNA minor groove binders” (2016)
